Experimental data as given in patent US20240180908A1, “TREATMENT OF KIDNEY DISEASES” (ACLIPSE ONE, INC., priority 2021, published 2024).

Legend:
[1] = PAN-injury podocyte viability assay (Cell Titer-Glo); format: cell-based, human; conditions: human, no test compound, read-out: podocyte viability compared with untreated cells
Description: (§1) Cell Culture. The human podocyte cell line (CIHP-1) is a […] isolated from human kidney. Podocytes are highly specialized, terminally differentiated cells with a complex cellular structure. They are a critical component of glomerular filtration. Cell cycle control, growth arrest and differentiation are key to the in vivo biology of podocytes. The conditionally immortalized podocyte cell line allows an in vitro process of maturation analogous to the development and maturation of podocytes in vivo. […] These include the novel podocyte proteins nephrin, podocin, CD2AP and synaptopodin. This robust cell line is extensively characterized and validated.
(§2) The growth medium of CIHP-1 cells (Ximbio) was RPMI 1640 with 10% fetal bovine serum (FBS), 1-fold of ITS (insulin-transferrin-selenium), and 1-fold Pen/Strep. The culture condition was 33° C. with 5% CO2. The cell detachment solution was Accutase® for 5 min at 33° C. The cell line passage ration was 1:3 every 3 or 4 days.
(§3) PAN-injury podocyte viability assay. Differentiated podocytes were either pretreated with dimethyl sulfoxide (DMSO) as vehicle, lobeglitazone, pioglitazone, rosiglitazone, or dexamethasone followed by puromycin aminonucleoside (PAN) treatment (5 μg/ml). Viability assays were performed after 3 or 5 days of treatments. […] For compound treatment, compounds were diluted to 20, 2, 0.2, 0.02 and 0.002 mM with DMSO. A volume of 1.8 μL of compounds was taken to 358.2 μL of culture medium and mixed. Media from plates were aspirated. A volume of 100 μL compound-added medium was added to each plate. Plates were placed in the incubator for 4 hours.
(§4) On day 0, CIHP-1 cells were seeded into two 96-well white plates using 5000 cell/well for 3 days (plate 1) or 2500 cell/well for 5 days (plate 2) treatment.
(§5) For compound treatment on Day 1, culture medium was aspirated. For each cell plate, 100 μl/well fresh medium with compounds was added for 4 hour. DMSO was used as control. After compound treatment for 4 hours, PAN was added to a final concentration of 5 μg/ml. No PAN treatment was used for the negative control. There was no medium change for the whole process.
(§6) On Day 4, for the first plate, Cell Titer-Glo (CTG) assay was used by adding 60 μl of CTG reagent into each well of the first plate, incubating at room temperature with shaking for 20 min, and then reading by the EnVision plate reader.
(§7) On Day 6, for the second plate, CTG assay was used by adding 60 μl of CTG reagent into each well of the second plate, incubating at RT with shaking for 20 min, and then reading by the EnVision plate reader.

[2] = system: human podocyte cell line (CIHP-1); assay: as above; format: cell-based; conditions: for CIHP-1 proliferation by CTG, percentage compared to DMSO control (without PAN): 4 h pretreatment
Description: as §1, §2, §3, §4, §5, §6, §7

[3] = compound 0.1 μM, PAN 5 μg/ml 3-day treatment
[4] = compound 0.1 μM, PAN 5 μg/ml 5-day treatment
[5] = compound 1 μM, PAN 5 μg/ml 3-day treatment
[6] = compound 1 μM, PAN 5 μg/ml 5-day treatment
[7] = compound 10 μM, PAN 5 μg/ml 3-day treatment
[8] = compound 10 μM, PAN 5 μg/ml 5-day treatment
[9] = compound 0.01 μM, PAN 5 μg/ml 3-day treatment
[10] = compound 0.01 μM, PAN 5 μg/ml 5-day treatment
[11] = compound 100 μM, PAN 5 μg/ml 3-day treatment
[12] = compound 100 μM, PAN 5 μg/ml 5-day treatment

Compound | viability at 3 days, 5 μg/ml ([1]; 5 μg/ml PAN for 3 days) [%] | viability at 5 days, 5 μg/ml ([1]; 5 μg/ml PAN for 5 days) [%] | CIHP-1 proliferation by CTG, percentage compared to DMSO control (without PAN) [2, 3] [%] | CIHP-1 proliferation by CTG, percentage compared to DMSO control (without PAN) [2, 4] [%] | CIHP-1 proliferation by CTG, percentage compared to DMSO control (without PAN) [2, 5] [%] | CIHP-1 proliferation by CTG, percentage compared to DMSO control (without PAN) [2, 6] [%] | CIHP-1 proliferation by CTG, percentage compared to DMSO control (without PAN) [2, 7] [%] | CIHP-1 proliferation by CTG, percentage compared to DMSO control (without PAN) [2, 8] [%] | protection to PAN-injured podocytes ([2]; 0.01 to 100 μM, 3 days of PAN exposure) | improvement of podocyte viability ([2]; 0.01 to 100 μM, after 5 days of PAN injury) | CIHP-1 proliferation by CTG, percentage compared to DMSO control (without PAN) [2, 9] [%] | CIHP-1 proliferation by CTG, percentage compared to DMSO control (without PAN) [2, 10] [%] | CIHP-1 proliferation by CTG, percentage compared to DMSO control (without PAN) [2, 11] [%] | CIHP-1 proliferation by CTG, percentage compared to DMSO control (without PAN) [2, 12] [%] | concentration at which toxicity to the podocyte cells was observed ([2]; human, 3 days) [µM]
CN(C)c1ncnc2c1ncn2[C@@H]1O[C@H](CO)[C@@H](N)[C@H]1O [PAN, puromycin aminonucleoside] | 70 to 80 | 30 to 40 | – | – | – | – | – | – | – | – | – | – | – | – | –
C[C@@H]1C[C@H]2[C@@H]3CCC4=CC(=O)C=C[C@]4(C)[C@@]3(F)[C@@H](O)C[C@]2(C)[C@@]1(O)C(=O)CO [dexamethasone] | – | – | 79.9 | 34.2 | 73.9 | 34.9 | 74.7 | 33.6 | – | – | – | – | – | – | –
COc1ccc(Oc2cc(N(C)CCOc3ccc(CC4SC(=O)NC4=O)cc3)ncn2)cc1 (centres unmarked) [lobeglitazone, 5-(4-(2-((6-(4-Methoxyphenoxy)pyrimidin-4-yl)(methyl)amino)ethoxy)benzyl) thiazolidine-2,4-dione] | – | – | 99.9 | 33.0 | 103.3 | 32.8 | 105 | 33.7 | significant protection | did not show significant improvement | 102.7 | 31.0 | 19.9 | 6.2 | 100
CCc1ccc(CCOc2ccc(CC3SC(=O)NC3=O)cc2)nc1 (centres unmarked) [pioglitazone] | – | – | 101.3 | 38.3 | 97.3 | 30.0 | 94.3 | 33.4 | – | – | 102.4 | 35.2 | 90.9 | 22.4 | –
CN(CCOc1ccc(CC2SC(=O)NC2=O)cc1)c1ccccn1 (centres unmarked) [rosiglitazone] | – | – | 76.0 | 32.7 | 74.5 | 33.6 | 69.2 | 29.1 | – | – | 72.4 | 32.6 | 69.6 | 15.0 | –
